According to ChEMBL document CHEMBL1150505 (Bioorg Med Chem Lett, 1994):

Experiments:
[1] = LTB4 receptor antagonist activity was determined by inhibition of specific binding of [3H]LTB4 in guinea pig lung membranes
Homo sapiens = species on record: Homo sapiens; assay: Compound was tested for Leukotriene B4-mediated Up-regulation of human neutrophil CD11b/CD18; assay type: functional
[2] = target: Leukotriene B4 receptor 1 (Homo sapiens, UniProt Q15722); assay: LTB4 receptor antagonist activity was determined by inhibition of specific binding of [3H]LTB4 in human neutrophil
Chain of Leukotriene B4 receptor 1 (Q15722 whole entry): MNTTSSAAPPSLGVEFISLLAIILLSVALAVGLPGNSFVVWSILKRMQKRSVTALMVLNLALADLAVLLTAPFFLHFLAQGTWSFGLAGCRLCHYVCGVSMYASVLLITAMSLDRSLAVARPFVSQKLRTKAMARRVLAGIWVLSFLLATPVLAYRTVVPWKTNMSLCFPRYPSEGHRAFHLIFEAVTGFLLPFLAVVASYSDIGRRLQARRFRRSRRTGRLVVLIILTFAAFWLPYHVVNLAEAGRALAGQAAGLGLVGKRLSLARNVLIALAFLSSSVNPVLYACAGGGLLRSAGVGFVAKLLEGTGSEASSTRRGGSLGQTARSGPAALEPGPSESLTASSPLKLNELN

Ki [1] [nM]	IC50 (Homo sapiens) [nM]	Ki [2] [nM]	SMILES
0.04	–	–	CCc1cc(-c2ccc(F)cc2)c(O)cc1OCCCOc1ccc2c(=O)c3cc(C(=O)O)ccc3oc2c1CCC(=O)O
–	2.6	–	CCc1cc(-c2ccc(F)cc2)c(O)cc1OCCCOc1cccc(Oc2ccc(C(=O)O)cc2)c1CCC(=O)O
–	1800	39	CCc1cc(-c2ccc(F)cc2)c(O)cc1OCCCOc1cc(Oc2ccc(C(=O)O)cc2)ccc1CCC(=O)O
–	4.7	–	CCc1cc(-c2ccc(F)cc2)c(O)cc1OCCCOc1ccc(C#CCCC(=O)O)cc1CCC(=O)O
